Data reported in patent US11746370B2, “Methods and compositions for assessing and treating intraocular diseases and disorders” (SMILEBIOTEK ZHUHAI LIMITED, priority 2017, dated 2023).
Entries after “also recorded” stand apart in the source; their conditions may differ.

Experiments:
[1] = test system: Bacillus megaterium; test: Antibiotic sensitivity screening test in petri dishes, minimum inhibitory concentration (MIC) method; format: cell-based; conditions: FIG. 27; for sensitivity of Bacillus megaterium / control of its growth in vitro: agar medium with antibiotic, 1*10^7 bacteria per culture, 37° C., 24 h
Procedure: The bacterial culture medium (HuanKai Microbial, Guangzhou, China) containing peptone 5 g, beef extract 3 g, NaCl 5 g, agar 15 g, and MnSO4 5 mg in 1 L ddH2O (pH=7.2) was prepared in conical flask (Drtech, Guangzhou, China) and was sterilized in the autoclave (HIRAYAMA, HEV-50, Japan) at 121° C. for 30 min. Antibiotics (ampicillin, vancomycin, neomycin, metronidazole, and tetracycline, purchased from Sigma, USA) at various concentrations were added into cooled medium. Bacillus megaterium (total 1*10^7 per culture) was cultured in the incubator (HettCube 200, Germany) at 37° C. for 24 h.
To test whether antibiotics can control the growth of Bacillus megaterium in vitro and in vivo, an antibiotic sensitivity screening test in petri dishes was carried out. The sensitivity of Bacillus megaterium to several major antimicrobial agents including Ampicillin, vancomycin, neomycin, metronidazole, and tetracycline were examined using the minimum inhibitory concentration (MIC) method.

[2] = test system: Bacillus megaterium; test: Bacillus megaterium subretinal inoculation model, bacteria-induced drusenoid pathology in monkey retinal tissues; format: in vivo; conditions: intravitreous 0.5 mg, one injection on Day 2 post bacterial inoculation, FIG. 28
Procedure: The macaques were sedated by intramuscular injection of a mixture of tiletamine hydrochloride (2.5 mg/kg) and xolazepam hydrochloride (2.5 mg/kg). After instilling topical anesthesia (0.5% proparacaine hydrochloride), the eyes were immediately visualized in vivo using a light microscope. The pupils were then dilated with 0.5% tropicamide and 0.5% phenylephrine to obtain the fundus photographs. Then a 35 gauge anterior chamber cannula was inserted through a sclerotomy and advanced through the vitreous. Under microscopic monitoring, […] of PBS (with or without bacteria) was injected into the subretinal space between photo receptors and RPE, using a NanoFil Syringe Nanofil-100 for Microinjection (World Precision Instruments, USA). All procedures were done using sterile instruments. The macaque was euthanized 47 days post inoculation and the eyeball was enucleated for histological analyses. The eyeballs were fixed in 4% paraformaldehyde for 48 h and then embedded in paraffin. Sections were cut on a microtome at 6 μm and stained with H&E.
(§1) Next, Bacillus megaterium subretinal inoculation model was used to test whether antibiotics might be able to change the bacteria-induced drusenoid pathology in monkey retinal tissues.

[3] = Intraocular administration in monkey, ocular complications; format: in vivo; conditions: data not shown
Description: as §1

| Molecule | fold less effective in controlling the growth of Bacillus megaterium ([1]; compared with neomycin) | size of drusenoid lesion in retinal tissue [2] | sensitivity of Bacillus megaterium / control of its growth in vitro [1] | ocular complications [3] |
| --- | --- | --- | --- | --- |
| Cc1ncc([N+](=O)[O-])n1CCO [metronidazole] | 10000 fold |  |  |  |
| CN[C@H](CC(C)C)C(=O)N[C@H]1C(=O)N[C@@H](CC(N)=O)C(=O)N[C@H]2C(=O)N[C@H]3C(=O)N[C@H](C(=O)N[C@H](C(=O)O)c4cc(O)cc(O)c4-c4cc3ccc4O)[C@H](O)c3ccc(c(Cl)c3)Oc3cc2cc(c3O[C@@H]2O[C@H](CO)[C@@H](O)[C@H](O)[C@H]2O[C@H]2C[C@](C)(N)[C@H](O)[C@H](C)O2)Oc2ccc(cc2Cl)[C@H]1O [vancomycin] |  | reduction in the size of drusenoid lesion | able to inhibit the growth |  |
| neomycin |  |  | most sensitive; also recorded: best in vitro activity | significant ocular complications including ophthalmatrophia |
